# Data taken from article PMC11086599, “Cyanobacterial α-carboxysome carbonic anhydrase is allosterically regulated by the Rubisco substrate RuBP” (Science Advances, 2024).
# Where a chain is given by its changes, count along the chain named.
# T1: CyCsoSCA (Cyanobium sp. PCC 7001, UniProt Z9Q2N2GQP4)
# T1 construct: first 116 residues (disordered N-terminal tail) removed; pHue His-ubiquitin fusion, tag cleaved with USP2; expressed in E. coli; homohexamer (trimer of dimers)
# T1 sequence (Z9Q2N2GQP4 117-583): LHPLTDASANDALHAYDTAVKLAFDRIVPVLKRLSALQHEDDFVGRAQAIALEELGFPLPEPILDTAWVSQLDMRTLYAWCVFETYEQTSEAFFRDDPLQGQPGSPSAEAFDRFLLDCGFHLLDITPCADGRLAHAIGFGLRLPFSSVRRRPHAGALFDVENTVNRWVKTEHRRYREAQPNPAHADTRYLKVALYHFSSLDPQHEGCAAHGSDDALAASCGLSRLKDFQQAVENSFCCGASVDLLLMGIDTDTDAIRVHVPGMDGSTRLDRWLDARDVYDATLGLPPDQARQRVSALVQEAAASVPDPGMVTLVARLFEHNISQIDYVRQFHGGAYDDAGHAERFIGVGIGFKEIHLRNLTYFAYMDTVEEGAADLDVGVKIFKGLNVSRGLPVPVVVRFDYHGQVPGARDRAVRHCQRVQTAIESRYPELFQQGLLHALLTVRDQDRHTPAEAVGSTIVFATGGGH
# T2: CyCsoSCA (Cyanobium sp. PCC 7001, UniProt Z9Q2N2GQP4, T477A)
# T2 construct: first 116 residues (disordered N-terminal tail) removed; pHue His-ubiquitin fusion, tag cleaved with USP2; expressed in E. coli; homohexamer (trimer of dimers)
# T2 sequence (Z9Q2N2GQP4 117-583 T477A): T1 sequence (Z9Q2N2GQP4 117-583) with T361A
# T3: CyCsoSCA (Cyanobium sp. PCC 7001, UniProt Z9Q2N2GQP4, H472Q)
# T3 construct: first 116 residues (disordered N-terminal tail) removed; pHue His-ubiquitin fusion, tag cleaved with USP2; expressed in E. coli; homohexamer (trimer of dimers)
# T3 sequence (Z9Q2N2GQP4 117-583 H472Q): T1 sequence (Z9Q2N2GQP4 117-583) with H356Q
# T4: CyCsoSCA (Cyanobium sp. PCC 7001, UniProt Z9Q2N2GQP4, K469D)
# T4 construct: first 116 residues (disordered N-terminal tail) removed; pHue His-ubiquitin fusion, tag cleaved with USP2; expressed in E. coli; homohexamer (trimer of dimers)
# T4 sequence (Z9Q2N2GQP4 117-583 K469D): T1 sequence (Z9Q2N2GQP4 117-583) with K353D
# B1: Halothiobacillus neapolitanus CsoSCA (α-carboxysome carbonic anhydrase), truncated form lacking the first 49 residues (enzyme, UniProt O85042 50-514, looked up)
# chain: RHPLTDLEANEQLGRCEDSVKNRFDRVIPFLQVVAGIPLGLDYVTRVQELAQSSLGHTLPEELLKDNWISGHNLKGIFGYATAKALTAATEQFSRKIMSEKDDSASAIGFFLDCGFHAVDISPCADGRLKGLLPYILRLPLTAFTYRKAYAGSMFDIEDDLAQWEKNELRRYREGVPNTADQPTRYLKIAVYHFSTSDPTHSGCAAHGSNDRAALEAALTQLMKFREAVENAHCCGASIDILLIGVDTDTDAIRVHIPDSKGFLNPYRYVDNTVTYAQTLHLAPDEARVIIHEAILNANRSDGWAKGNGVASEGMRRFIGQLLINNLSQIDYVVNRHGGRYPPNDIGHAERYISVGDGFDEVQIRNLAYYAHLDTVEENAIDVDVGIKIFTKLNLSRGLPIPIAIHYRYDPNVPGSRERTVVKARRIYNAIKERFSSLDEQNLLQFRLSVQAQDIGSPIEEVASA
# notes: CsoSCA carbonic anhydrase of Halothiobacillus neapolitanus, O85042 with the first 49 residues (disordered N-terminal region) removed; codon-optimised for E. coli; also called HnCsoSCA; wild-type HnCsoSCA; source: E. coli NEB T7 Express pLysY, pHue plasmid, purified (HisTrap, USP2 cleavage, second HisTrap, SEC on Superdex 200)
# Experiments:
# CyCsoSCA [1] = molecular target: T1, CyCsoSCA; experiment: membrane inlet mass spectrometry […]-exchange CA assay; Hill fit; type: biochemical; conditions: allosteric activator of bicarbonate dehydration/CO2 hydration; sigmoidal, Hill slope 2.214; 2.7 mM labelled bicarbonate, 50 mM EPPS-NaOH, 20 mM MgCl2, pH 7.8; site near dimer interface (R266, K469, R5)
# CyCsoSCA [2] = molecular target: T2, CyCsoSCA; experiment: membrane inlet mass spectrometry […]-exchange CA assay; type: biochemical; conditions: 100 μM RuBP; allosteric activator; same buffer
# CyCsoSCA [3] = molecular target: T3, CyCsoSCA; experiment: as above; type: biochemical; conditions: 100 μM RuBP; allosteric activator; same buffer
# CyCsoSCA [4] = molecular target: T4, CyCsoSCA; experiment: as above; type: biochemical; conditions: 100 μM RuBP; allosteric activator; same buffer
# HnCsoSCA = molecular target: T5, HnCsoSCA (Halothiobacillus neapolitanus, UniProt O85042); conditions: labelled compound; 2.7 mM NaH13C18O3, 50 mM EPPS-NaOH, 20 mM MgCl2, pH 7.8, DTNB; no RuBP needed
# T5 construct: gene csoS3
# [5] = molecular target: Cyanobium sp. PCC7001 CsoSCA (α-carboxysome carbonic anhydrase), truncated form lacking the 116-residue disordered N-terminal region (Cyanobium sp. PCC7001); experiment: crystal structure; CyCsoSCA co-crystallised with RuBP (RuBP:CyCsoSCA 10:1), 7 mg/ml protein, 0.2 M ammonium sulfate, 0.1 M bis-tris pH 6.5, 21% PEG 3350, 15% ethylene glycol; one hexamer in the asymmetric unit, P212121
# [6] = molecular target: Cyanobium sp. PCC7001 CsoSCA (α-carboxysome carbonic anhydrase), truncated form lacking the 116-residue disordered N-terminal region (Cyanobium sp. PCC7001); experiment: SEC; size exclusion chromatography of the purified protein in solution (fig. S13); conditions of this run not told in the main text
# [7] = molecular target: the molecule itself; experiment: as above
molecule,measurement,setting,value
O=C(COP(=O)(O)O)[C@H](O)[C@H](O)COP(=O)(O)O [RuBP],EC50,CyCsoSCA [1],18 ± 2 µM
same,membrane inlet mass spectrometry 18O-exchange CA assay,CyCsoSCA [2],high levels of ligand-independent activity and a notable increase with RuBP
same,membrane inlet mass spectrometry 18O-exchange CA assay,CyCsoSCA [3],H472Q mutation (targeted approach) and T477A (random approach) also resulted in a biphasic activity profile
same,membrane inlet mass spectrometry 18O-exchange CA assay,CyCsoSCA [4],a minor increase in activity upon addition of the ligand
O=C(O)O [HCO3^−],membrane inlet mass spectrometry 18O-exchange CA assay,HnCsoSCA,HCO3^− dehydration activity was recorded using MIMS after the addition of CsoSCA variants
"Cyanobium sp. PCC7001 CsoSCA (α-carboxysome carbonic anhydrase), truncated form lacking the 116-residue disordered N-terminal region (enzyme)",stoichiometry N,[5],6
same,stoichiometry N,[6],6
B1,stoichiometry N,[7],6
